Measured values taken from ChEMBL document CHEMBL4613276, “Discovery of New 1,1'-Biphenyl-4-sulfonamides as Selective Subnanomolar Human Carbonic Anhydrase II Inhibitors” (ACS Med Chem Lett, 2020).

Assays:
Carbonic anhydrase 1 = Carbonic anhydrase 1 (Homo sapiens, UniProt P00915); experiment: Inhibition of recombinant human carbonic anhydrase 1 preincubated with enzyme for 10 mins by phenol red dye based stopped flow CO2 hydration assay
Carbonic anhydrase 2 = Carbonic anhydrase 2 (Homo sapiens, UniProt P00918); experiment: Inhibition of recombinant human carbonic anhydrase 2 preincubated with enzyme for 10 mins by phenol red dye based stopped flow CO2 hydration assay
Carbonic anhydrase 9 = Carbonic anhydrase 9 (Homo sapiens, UniProt Q16790)
Description: Inhibition of recombinant human carbonic anhydrase 9 preincubated with enzyme for 10 mins by phenol red dye based stopped flow CO2 hydration assay

Carbonic anhydrase 1, sequence (P00915 whole entry): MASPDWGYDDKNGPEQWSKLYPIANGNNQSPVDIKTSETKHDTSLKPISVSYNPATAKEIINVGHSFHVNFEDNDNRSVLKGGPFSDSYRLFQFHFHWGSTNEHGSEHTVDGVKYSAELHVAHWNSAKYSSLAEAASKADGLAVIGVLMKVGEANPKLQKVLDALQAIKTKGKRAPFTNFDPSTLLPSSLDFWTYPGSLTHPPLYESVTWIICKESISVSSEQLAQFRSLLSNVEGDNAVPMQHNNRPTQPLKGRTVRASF

## Nc1cccc(C(O)c2ccc(-c3ccc(S(N)(=O)=O)cc3)cc2)c1 (stereo not drawn)
Carbonic anhydrase 1
  Ki: 0.0331 µM
Carbonic anhydrase 2
  Ki: 0.00078 µM
Carbonic anhydrase 9
  Ki: 0.464 µM

## Nc1cccc(C(=O)c2ccc(-c3ccc(S(N)(=O)=O)cc3)cc2)c1
Carbonic anhydrase 1
  Ki: 0.0873 µM
Carbonic anhydrase 2
  Ki: 0.0098 µM
Carbonic anhydrase 9
  Ki: 0.266 µM

## NS(=O)(=O)c1ccc(-c2ccc(C3OC(=O)c4ccccc43)cc2)cc1 (stereo not drawn)
Carbonic anhydrase 1
  Ki: 0.0801 µM
Carbonic anhydrase 2
  Ki: 0.0007 µM
Carbonic anhydrase 9
  Ki: 0.249 µM

## Nc1cccc(Cc2ccc(-c3ccc(S(N)(=O)=O)cc3)cc2)c1
Carbonic anhydrase 1
  Ki: 0.0059 µM
Carbonic anhydrase 2
  Ki: 0.00092 µM
Carbonic anhydrase 9
  Ki: 0.556 µM

## NS(=O)(=O)c1ccc(-c2ccc(C(=O)c3ccccc3C(=O)O)cc2)cc1
Carbonic anhydrase 1
  Ki: 0.0394 µM
Carbonic anhydrase 2
  Ki: 0.00083 µM
Carbonic anhydrase 9
  Ki: 0.469 µM

## NS(=O)(=O)c1ccc(-c2ccc(Cc3ccccc3C(=O)O)cc2)cc1
Carbonic anhydrase 1
  Ki: 0.0068 µM
Carbonic anhydrase 2
  Ki: 0.00069 µM
Carbonic anhydrase 9
  Ki: 0.437 µM

## NS(=O)(=O)c1ccc(-c2ccc(C(O)c3cccc(C(=O)O)c3)cc2)cc1 (stereo not drawn)
Carbonic anhydrase 1
  Ki: 0.0069 µM
Carbonic anhydrase 2
  Ki: 0.00083 µM
Carbonic anhydrase 9
  Ki: 0.0884 µM

## Nc1ccccc1C(=O)c1ccc(-c2ccc(S(N)(=O)=O)cc2)cc1
Carbonic anhydrase 1
  Ki: 0.218 µM
Carbonic anhydrase 2
  Ki: 0.031 µM
Carbonic anhydrase 9
  Ki: 0.289 µM

## NS(=O)(=O)c1ccc(-c2ccc(C(=O)c3cccc(C(=O)O)c3)cc2)cc1
Carbonic anhydrase 1
  Ki: 0.0073 µM
Carbonic anhydrase 2
  Ki: 0.00094 µM
Carbonic anhydrase 9
  Ki: 0.491 µM

## Nc1ccccc1C(O)c1ccc(-c2ccc(S(N)(=O)=O)cc2)cc1 (stereo not drawn)
Carbonic anhydrase 1
  Ki: 0.0084 µM
Carbonic anhydrase 2
  Ki: 0.00097 µM
Carbonic anhydrase 9
  Ki: 0.092 µM

## NS(=O)(=O)c1ccc(-c2ccc(Cc3cccc(C(=O)O)c3)cc2)cc1
Carbonic anhydrase 1
  Ki: 0.0213 µM
Carbonic anhydrase 2
  Ki: 0.00057 µM
Carbonic anhydrase 9
  Ki: 0.323 µM
